The results in this text go back to patent US6365616B1, “Methimazole derivatives and tautomeric cyclic thiones to treat autoimmune diseases” (Sentron Medical, Inc., priority 1998, dated 2002).

Assay [1] relates to protein/DNA complex with Fragment 127 of the MHC class I 5′-flanking region. The assay is described as follows: Gel shift (EMSA) with downstream 127 class I probe, extracts from treated FRTL-5 cells. The class given is cell-based, rat. The note with it: 5H cells treated 48 hours. As to the method: (§1) Cells were grown in 6H medium with 5 % calf serum for 6-7 days to 70-80% confluence, then shifted to 5H medium with 5 % calf serum for 5 days. TSH (1×10^−10 M), gamma-interferon (100 U/ml), MMI (5 mM), and different concentrations of MMI derivatives or tautomeric cyclic thiones (0.0001 to 10 mM) were added as appropriate for […]. Cells were then harvested and extracts were made by a modification of a method of Dignam, J., et al. Methods in Enzymology, 101:582-598 (1983). In brief, cells were harvested by scraping after being washed twice with cold phosphate-buffer saline (PBS). Subsequently they were pelleted, washed in cold PBS and then pelleted again. The pellet was resuspended in Dignam buffer C (20 mM Hepes buffer at pH 7.9, 1.5 mM MgCl2, 0.42 M NaCl, 25% glycerol, 0.5 mM dithiotreitol (DTT), 0.5 mM phenylmethylsulfonylfluoride (PMSF), 1 […] pepstatin). The final NaCl concentration was adjusted on the basis of cell pellet volume to 0.42 M and cells were lysed by repeated cycles of freezing and thawing. Extracts were then centrifuged at 10,000×g at 4° C. for 20 min. The supernatant was recovered, aliquoted and stored at −70° C.
(§2) Binding reactions were performed in a volume of 20 μl for 30 min at room temperature. The typical reaction mixture contained 1.5 fmol of ^32P DNA, 3 μg of cell extracts, 1 to 3 μg of poly (dI-dC) in 10 mM Tris-Cl (pH 7.9), 1 mM MgCl2, 1 mM DTT, 1 mM ethylenediamine tetra acetic acid (EDTA), and 5 % glycerol. After incubation, reaction mixtures were subjected to electrophoresis in 4% polyacrylamide gels for 90-120 min at 160 V in 0.5× TBE (Sambrook, J., et al., Molecular Cloning: A Laboratory Manual, 2nd ed. Cold Spring Harbor Press, NY, 2: 11.23-11.44 (1989)), then dried and autoradiographed. Probes were labeled with [α32P] deoxy CTP by Klenow enzyme (In Vitro labeling kit, Amersham) following the manufacturer's instructions, or by [γ^32P] ATP using T4 polynucleotide kinase. Labeled probes were then purified either through G-50 columns (5 prime→3 Prime) or on an 8% polyacrylamide gel.
FIG. 3 denotes the sequence of the downstream region of the PD1 promoter. The location of enhancer A (−180 to −170 bp), the interferon response element (IRE; −161 to −150 bp), and the cAMP response element (CRE; −107 to −100 bp) are noted. The downstream silencer is between −127 and −80 bp (Saji, et al., ibid, 20096-20107 (1997)). Using a 127 bp probe, −125 to +1 bp, MMI (lane 4) or TSH (lane 10) induce the formation of a rapidly migrating protein/DNA complex (FIG. 4) which is clearly evident 24 to 48 h after SH cells are treated. MMI derivatives can also increase this complex, as illustrated for compound 8 in FIG. 4 (lanes 1 to 3). The time most suitable for measurement is 24 to 48 h (FIG. 4) the complex can be quantitated by comparison to control (lane 7 or 9) using densitometry or the phosphoimager as noted earlier. In this case, the increase over control (set at 1) is measured in arbitrary units relative to the maximal increase induced by 5 mM MMI which is arbitrarily set at 10. The results using all 11 compounds in Table 1, each added to cells at different concentrations 48 hours before extracts were prepared, are summarized in Table 3.

Assay [2] relates to silencer complex with Fragment 140 (upstream silencer/enhancer) of the MHC Class I PD1 5′-flanking region. Kind of assay: Gel shift (EMSA) with upstream 140 class I probe, extracts from treated FRTL-5 cells. The assay is classed as cell-based, rat. The note with it: 5H cells treated 48 hours. As to the method:
FRTL-5 rat thyroid cells (Kohn, L. D., et al., U.S. Pat. No. 4,609,622 (1986); Ambesi-Impiombato E S., U.S. Pat. No. 4,608,341 (1986)) are grown as described below. […] Their doubling time was approximately 36±6 hours; and, after 6 days in medium with no TSH (5H) and 5.0% serum, […] TSH elevated iodide uptake 8-10 fold and thymidine incorporation>10 fold. Cells were diploid, between their 5th and 25th passage in most experiments, and were routinely grown in Coon's modified F12 medium supplemented with 5 % calf serum, 1 mmol/L nonessential amino acids (GIBCO) and a mixture of 6 hormones (6H medium): TSH (1×10^−10 M), insulin (10 μg/ml), hydrocortisone 0.4 ng/ml, human transferrin (5 μg/ml), somatostatin ([…]) and glycyl-L-histidyl-L-lysine acetate (10 ng/ml) (Kohn, L. D. et al., U.S. Pat. No. 4,609,622 (1986); Ambesi-Impiombato, E. S., U.S. Pat. No. 4,608,341 (1986)). They were passaged every 7-10 days and provided fresh media every 2 or 3 days. In individual experiments, cells were grown to near confluency in 6H medium then, in some experiments, were shifted to medium with no TSH (5H), to medium with neither TSH and or insulin (4H), or to medium with no TSH, no insulin and no hydrocortisone (3H) plus either 5% or 0.2% serum for 4-7 days before use.
as §1, §2
The effect of the addition of 5 mM MMI to cells for 48 hours prior to extract preparation from cells maintained in SH medium is shown in lane 1 of FIG. 2. The effect of the addition of 1 mM concentration of representative MMI derivatives to cells maintained in 5H medium for 48 hours prior to extract preparation is shown in lanes 3 to 8 in FIG. 2. The structures and names of the representative numbered compounds are in Table 1. The MMI or its derivatives decrease the silencer complex. The decrease can be quantitated by densitometry of autoradiograms or phosphoimaging on a Bas 1500 imager (for example). […]

`Cn1ccnc1S` [Compound 1, 1-Methylimidazole-2-thiol]: the “% increase over control relative to the maximal (5 mM) MMI-increased silencer complex which is set at 10” value in assay [1] (10 μM) is 0%; in assay [1] (100 μM), 0%; in assay [1] (1 mM), 2 ± 1%; in assay [1] (5 mM), 10%. Besides, the “% inhibition of control silencer complex formation” value (from here on “% inhibition”) is recorded as 0% in assay [2] (10 μM), 0% in assay [2] (100 μM), 20 ± 15% in assay [2] (1 mM) and 75 ± 12% in assay [2] (5 mM).

Consider `Cc1ncc([N+](=O)[O-])n1CCO` [Compound 2, 2-Methyl-5-nitro-1-imidazole ethanol], for which the “% increase over control relative to the maximal (5 mM) MMI-increased silencer complex which is set at 10” value in assay [1] (10 μM) was 0%; in assay [1] (100 μM), 0%; in assay [1] (1 mM), 5 ± 1%; in assay [1] (5 mM), 10 ± 2%. Besides, the “% inhibition” value in assay [2] (10 μM) stood at 0%; in assay [2] (100 μM), 0%; in assay [2] (1 mM), 45 ± 19%; in assay [2] (5 mM), 86 ± 15%.

Consider `Sc1ncc[nH]1` [Compound 3, 2-Mercaptoimidazole], for which the “% increase over control relative to the maximal (5 mM) MMI-increased silencer complex which is set at 10” value in assay [1] (10 μM), in assay [1] (100 μM), in assay [1] (1 mM) and in assay [1] (5 mM) was 0% in each case. Moreover, the “% inhibition” value in assay [2] (10 μM), in assay [2] (100 μM), in assay [2] (1 mM) and in assay [2] (5 mM) was 0% throughout.

For the compound `Sc1nc2ccccc2[nH]1` [Compound 4, 2-Mercaptobenzimidazole], the “% increase over control relative to the maximal (5 mM) MMI-increased silencer complex which is set at 10” value in assay [1] (10 μM) was 0%; in assay [1] (100 μM), 3 ± 0.5%; in assay [1] (1 mM) it was 9 ± 1.5%; in assay [1] (5 mM), “Insol”. Further, the “% inhibition” value is 0% in assay [2] (10 μM), 5% in assay [2] (100 μM), 75 ± 10% in assay [2] (1 mM) and “Insol” in assay [2] (5 mM).

Turning to `O=[N+]([O-])c1ccc2[nH]c(S)nc2c1` [Compound 5, 2-Mercapto-5-nitrobenzimidazole], the “% increase over control relative to the maximal (5 mM) MMI-increased silencer complex which is set at 10” value in assay [1] (10 μM) is 0%; in assay [1] (100 μM), 0%; in assay [1] (1 mM) it was 0%; in assay [1] (5 mM) it was “Insol”. In addition, the “% inhibition” value is on record as 0% in assay [2] (10 μM), 0% in assay [2] (100 μM), 0% in assay [2] (1 mM) and “Insol” in assay [2] (5 mM).

Turning to `Cc1ccc2[nH]c(S)nc2c1` [Compound 6, 2-Mercapto-5-methylbenzimidazole], the “% increase over control relative to the maximal (5 mM) MMI-increased silencer complex which is set at 10” value in assay [1] (10 μM) is 0%; in assay [1] (100 μM), 0%; in assay [1] (1 mM) it was 3 ± 2%; in assay [1] (5 mM) it was “Insol”. The “% inhibition” value is given as 0% in assay [2] (10 μM), 0% in assay [2] (100 μM), 20 ± 18% in assay [2] (1 mM) and “Insol” in assay [2] (5 mM).

Regarding `CSc1nccn1C` [Compound 7, S-Methylmethimazole], the “% increase over control relative to the maximal (5 mM) MMI-increased silencer complex which is set at 10” value worked out at 0% in assay [1] (10 μM), 2 ± 1% in assay [1] (100 μM) and 6 ± 0.5% in assay [1] (1 mM). Further, the entries for the “% inhibition” value in assay [2] (10 μM), in assay [2] (100 μM) and in assay [2] (1 mM) were 0%, 10 ± 13% and 50 ± 9%, respectively.

With `Cn1ccn(C)c1=S` [Compound 8, N-Methylmethimazole], the “% increase over control relative to the maximal (5 mM) MMI-increased silencer complex which is set at 10” value in assay [1] (10 μM) turned out to be 0%; in assay [1] (100 μM), 3 ± 2%; in assay [1] (1 mM), 9 ± 1%. The “% inhibition” value in assay [2] (10 μM) is recorded as 0%; in assay [2] (100 μM), 18 ± 18%; in assay [2] (1 mM), 70 ± 14%.

`Cc1cnc(S)n1C` [Compound 9, 5-Methylmethimazole]: the “% increase over control relative to the maximal (5 mM) MMI-increased silencer complex which is set at 10” value in assay [1] (10 μM) is on record as 0%; in assay [1] (100 μM), 0%; in assay [1] (1 mM) it was 1.5 ± 1.5%; in assay [1] (5 mM) it was 2.5 ± 1%. Besides, the “% inhibition” value in assay [2] (10 μM) is listed as 0%; in assay [2] (100 μM) it was 0%; in assay [2] (1 mM), 15 ± 15%; in assay [2] (5 mM), 30 ± 20%.

Regarding `Cn1c(-c2ccccc2)cnc1S` [Compound 10, 5-Phenylmethimazole], the “% increase over control relative to the maximal (5 mM) MMI-increased silencer complex which is set at 10” value in assay [1] (10 μM) is listed as 3 ± 1.5%; in assay [1] (100 μM), 7 ± 1%; in assay [1] (1 mM), 10 ± 1%. Further, the “% inhibition” value in assay [2] (10 μM) was 25%; in assay [2] (100 μM) it was 60 ± 10%; in assay [2] (1 mM) it was 85 ± 15%.
